Assays:
[1] = target: 15-PGDH (Homo sapiens (Human), UniProt P15428); assay: 15-PGDH inhibitory activity (NADH at 340 nm); type: biochemical; conditions: concentration inhibiting 50% of 15-PGDH activity; purified 15-PGDH, 21 μM PGE2, 0.25 mM NAD+
Protocol: The 15-PGDH cDNA plasmid containing the BamHI of the pGEX-2T expression vector and EcoRI restriction enzyme sites was transfected into E. coli BL-21 LysS by using conventional methods used in the art. Then, the transfected cells were cultured in an LB medium (500 ml) containing 50 μg/ml of ampicillin at a temperature of 37° C. and at a rate of 220 rpm until the OD600 reached 0.6. Then, isopropyl beta-D-thiogalactoxide (1 mM) was added and the cells were further cultured at the temperature of 25° C. for 12 hours. The cells were then centrifuged at the gravity of 4,000 g for 30 minutes at a temperature of 4° C. to collect a cell pellet. The cell pellet was dissolved in 20 ml of cell lysis buffer (containing 1×PBS buffer (pH 7.4): 1 mM EDTA and 0.1 mM DTT) and sonicated at a temperature of 4° C. for 14×10 s. The digested cells were centrifuged at the gravity of 4,000 g for 20 minutes at a temperature of 4° C. The supernatant was then slowly loaded onto a glutathione-sepharose 4B column equilibrated at a temperature of 4° C. with cell lysis buffer [containing 1×PBS buffer (pH 7.4), 1 mM EDTA, and 0.1 mM DTT]. Washing was performed thereon by using a dissolution buffer until the OD280 reached 0.005 or less. Then, 15-PGDH was eluted from the glutathione-sepharose 4B column at room temperature for 5 minutes by using an elution buffer [containing 50 mM Tris-HCl (pH 8.0), 10 mM reduced glutathione, 1 mM EDTA, and 0.1 mM DTT). The concentration of the purified enzyme was measured, and the purification level thereof was confirmed by SDS-PAGE.
That is, the cells were treated with a solution including 50 mM Tris-HCl (pH 7.5), 0.1 mM DTT, 0.25 mM (NAD+), 10 μg of purified 15-PGDH enzyme, 21 μM PGE2. and various concentrations (0.0001 μM to 64 μM) of the derivative compound according to the present disclosure. In this case, the total volume of the solution was 2 ml. Then, the absorbance of the reaction mixture was recorded at the wavelength of 340 nm. To measure the activity of the derivative compounds according to the present disclosure, which is an inhibitor of 15-PGDH, the average value of NADH absorbance at 340 nm at various concentrations was obtained from a standard curve.

[2] = system: A549 cells; assay: Measurement of PGE2 concentration in A549 cell medium (ELISA); type: cell-based, human; conditions: for Increment %: PGE2 concentration versus PBS control, 5 μM, 12 hours; for PGE2 concentration: inhibitor 5 μM, medium collected after 12 hours, ELISA
Protocol: A549 cells were subcultured in RPMI 1640 medium (containing+8% fetal bovine serum (FBS) and antibiotic-antimycotic (AA)) for one week, and then, inoculated in a 6-well plate at 2.5×10^5 cells/mL (5×10^5 cells/well) and cultured for 24 hours in a 5% CO2 incubator at a temperature of 37° C. A549 cells are adenocarcinomic human alveolar basal epithelial cells which are derived from lung tissues. When cells were grown to about 80% confluence, a 15-PGDH inhibitor in 1×PBS buffer was injected at a concentration of 5 μM. To compare the results, the same amount of 1×PBS buffer was injected into a negative control, and, the treated cells were cultured in 5% CO2 incubator. After 12 hours, the medium was collected and the collected medium was assayed to measure PGE2 concentration by using an ELISA Kit (Abcam) according to the manufacturer's instructions. The concentration may be expressed as an exact value by plotting the calibration curve by using the absorbance value after diluting the standard in the medium by concentration.

15-PGDH, sequence (P15428 whole entry): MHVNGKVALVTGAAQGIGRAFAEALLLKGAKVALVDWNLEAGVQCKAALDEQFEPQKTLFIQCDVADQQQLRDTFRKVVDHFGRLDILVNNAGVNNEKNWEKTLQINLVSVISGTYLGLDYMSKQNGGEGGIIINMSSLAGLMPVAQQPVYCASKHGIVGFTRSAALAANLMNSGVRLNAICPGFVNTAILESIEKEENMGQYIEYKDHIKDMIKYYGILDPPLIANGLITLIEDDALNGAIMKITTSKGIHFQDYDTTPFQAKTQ

| SMILES | IC50 [1] | Increment % [2] | PGE2 concentration [2] |
| --- | --- | --- | --- |
| O=C1NC(=O)/C(=C/c2ccc(OC(=O)C3CCCCC3)cc2)S1 [Compound 66, (Z)-4-((2,4-dioxothiazolidin-5-ylidene)methyl)phenyl cyclohexanecarboxylate] | 88.8 nM | 2.49% | 132.3901 pg/mL |
| CCOc1cc(/C=C2\SC(=O)NC2=O)ccc1OC(=O)CCCCC1CCCCC1 [Compound 55, (Z)-4-((2,4-dioxothiazolidin-5-ylidene)methyl)-2-ethoxyphenyl 5-cyclohexylpentanoate] | 34.4 nM | 7.8% | 295.349 pg/mL |
| O=C(CCCCC1CCCCC1)Oc1cccc(/C=C2\SC(=O)NC2=O)c1Cl [Compound 85, (Z)-2-chloro-3-((2,4-dioxothiazolidin-5-ylidene)methyl)phenyl 5-cyclohexylpentanoate] | 25.6 nM | −7.79% | 194.0212 pg/mL |
| COc1cc(/C=C2\SC(=O)NC2=O)ccc1OC(=O)CCCCc1ccccc1 [Compound 45, (Z)-4-((2,4-dioxothiazolidin-5-ylidene)methyl)-2-methoxyphenyl 5-phenylpentanoate] | 38.9 nM | 78.78% | 362.494 pg/mL |
| O=C(CCCc1ccccc1)Oc1ccc(/C=C2\SC(=O)NC2=O)cc1Br [Compound 29, (Z)-2-bromo-4-((2,4-dioxothiazolidin-5-ylidene)methyl)phenyl 4-phenylbutanoate] | 14.5 nM | 367.81% | 922.5414 pg/mL |
| COc1cc(/C=C2\SC(=O)NC2=O)ccc1OC(=O)CCCCC1CCCCC1 [Compound 40, (Z)-4-((2,4-dioxothiazolidin-5-ylidene)methyl)-2-methoxyphenyl 5-cyclohexylpentanoate] | 28.2 nM | 7.88% | 218.7373 pg/mL |
| COc1cc(/C=C2\SC(=O)NC2=O)ccc1OC(=O)CCCC1CCCCC1 [Compound 39, (Z)-4-((2,4-dioxothiazolidin-5-ylidene)methyl)-2-methoxyphenyl 4-cyclohexylbutanoate] | 17.5 nM | 220.24% | 649.318 pg/mL |
| O=C(CCCCC1CCCCC1)Oc1ccc(/C=C2\SC(=O)NC2=O)cc1Br [Compound 25, (Z)-2-bromo-4-((2,4-dioxothiazolidin-5-ylidene)methyl)phenyl 5-cyclohexylpentanoate] | 26.3 nM | 5.34% | 266.5484 pg/mL |
| O=C1NC(=O)/C(=C/c2ccc(OC(=O)C3CCC3)c(Br)c2)S1 [Compound 17, (Z)-2-bromo-4-((2,4-dioxothiazolidin-5-ylidene)methyl)phenyl cyclobutanecarboxylate] | 106 nM | 56.34% | 395.597 pg/mL |
| O=C(CCc1ccccc1)Oc1ccc(/C=C2\SC(=O)NC2=O)c(Cl)c1 [Compound 103, (Z)-3-chloro-4-((2,4-dioxothiazolidin-5-ylidene)methyl)phenyl 3-phenylpropanoate] | 87.5 nM | 159.989% | 290.2972 pg/mL |
| CCOc1cc(/C=C2\SC(=O)NC2=O)ccc1OC(=O)CCC1CCCC1 [Compound 50, (Z)-4-((2,4-dioxothiazolidin-5-ylidene)methyl)-2-ethoxyphenyl 3-cyclopentylpropanoate] | 29 nM | 89.67% | 519.6554 pg/mL |
| O=C1NC(=O)/C(=C/c2ccc(OC(=O)C3CCCC3)c(Br)c2)S1 [Compound 18, (Z)-2-bromo-4-((2,4-dioxothiazolidin-5-ylidene)methyl)phenyl cyclopentanecarboxylate] | 50 nM | −21.7% | 198.1274 pg/mL |
| COc1cc(/C=C2\SC(=O)NC2=O)ccc1OC(=O)CCC1CCCC1 [Compound 35, (Z)-4-((2,4-dioxothiazolidin-5-ylidene)methyl)-2-methoxyphenyl 3-cyclopentylpropanoate] | 23.4 nM | 130.79% | 455.1278 pg/mL |
| O=C(CCC1CCCC1)Oc1ccc(/C=C2\SC(=O)NC2=O)cc1Br [Compound 20, (Z)-2-bromo-4-((2,4-dioxothiazolidin-5-ylidene)methyl)phenyl 3-cyclopentylpropanoate] | 15.8 nM | 227.32% | 828.2384 pg/mL |
| O=C(CCc1ccccc1)Oc1cccc(/C=C2\SC(=O)NC2=O)c1Cl [Compound 88, (Z)-2-chloro-3-((2,4-dioxothiazolidin-5-ylidene)methyl)phenyl 3-phenylpropanoate] | 22.5 nM | 113.47% | 449.1671 pg/mL |
| O=C(CCCc1ccccc1)Oc1ccc(/C=C2\SC(=O)NC2=O)c(Cl)c1 [Compound 104, (Z)-3-chloro-4-((2,4-dioxothiazolidin-5-ylidene)methyl)phenyl 4-phenylbutanoate] | 74.9 nM | 213.4577% | 349.9990 pg/mL |
| O=C(CC1CCCC1)Oc1cccc(/C=C2\SC(=O)NC2=O)c1Cl [Compound 79, (Z)-2-chloro-3-((2,4-dioxothiazolidin-5-ylidene)methyl)phenyl 2-cyclopentylacetate] | 42.8 nM | −2.34% | 116.875 pg/mL |
| O=C(CCCCc1ccccc1)Oc1ccc(/C=C2\SC(=O)NC2=O)cc1 [Compound 75, (Z)-4-((2,4-dioxothiazolidin-5-ylidene)methyl)phenyl 5-phenylpentanoate] | 92.1 nM | 23.31% | 159.2841 pg/mL |
| O=C(O)c1ccccc1.O=C1NC(=O)/C(=C/c2cccc(OC(=O)c3ccccc3)c2Cl)S1 [Compound 86, (Z)-2-chloro-3-((2,4-dioxothiazolidin-5-ylidene)methyl)phenyl benzoate] | 54.1 nM | −12.12% | 184.9103 pg/mL |
| COc1cc(/C=C2\SC(=O)NC2=O)ccc1OC(=O)CC1CCCC1 [Compound 34, (Z)-4-((2,4-dioxothiazolidin-5-ylidene)methyl)-2-methoxyphenyl 2-cyclopentylacetate] | 60.2 nM | −70.77% | 57.64 pg/mL |
| O=C(CC1CCCC1)Oc1ccc(/C=C2\SC(=O)NC2=O)cc1 [Compound 64, (Z)-4-((2,4-dioxothiazolidin-5-ylidene)methyl)phenyl 2-cyclopentylacetate] | 52.1 nM | 25.34% | 199.4576 pg/mL |
| COc1cc(/C=C2\SC(=O)NC2=O)ccc1OC(=O)CC1CCCCC1 [Compound 37, (Z)-4-((2,4-dioxothiazolidin-5-ylidene)methyl)-2-methoxyphenyl 2-cyclohexylacetate] | 27.8 nM | 88.85% | 382.9119 pg/mL |
| O=C(CCc1ccccc1)Oc1ccc(/C=C2\SC(=O)NC2=O)cc1 [Compound 73, (Z)-4-((2,4-dioxothiazolidin-5-ylidene)methyl)phenyl 3-phenylpropanoate] | 54.4 nM | 102.39% | 261.4347 pg/mL |
| O=C1NC(=O)/C(=C/c2ccc(OC(=O)C3CCCCC3)cc2Cl)S1 [Compound 96, (Z)-3-chloro-4-((2,4-dioxothiazolidin-5-ylidene)methyl)phenyl cyclohexanecarboxylate] | 26.8 nM | 8.8874% | 121.5809 pg/mL |
